# Structures can show the parent of a compound that is named as a salt.
# Target: T1, human GluN1/GluN2B NMDA receptors (Homo sapiens, UniProt Q13224)
# T1 construct: expressed in transfected cells
# Assay: Calcium flux (FLIPR) assay on cloned human NR1/GluN2B ion channels expressed in mammalian cells (standard and HTS variants)
# Assay type: cell-based
# Conditions: cells expressing human GluN1/GluN2B, glutamate and glycine co-agonists
# Protocol: Effects of Test Articles on Cloned Human NR1/GuN2B Ion Channels Expressed in Mammalian Cells
# NMDA receptors are ion channels that are highly permeable to Ca^2+ ions, rendering it possible to monitor NMDA receptor function using cell-based calcium flux assay. In this assay, co-agonists glutamate and glycine are added to cells heterologously expressing human GluN1/GluN2B NMDA receptors to initiate cellular Ca^2+ influx. The time course of the changes in intracellular calcium is measured using a fluorescent dye and a FLIPR (Fluorometric Imaging Plate Reader) device.
# Twenty-four hours before measurements, the expression of the NMDA receptors in the stable cell line is induced with Tet-On inducible system in the presence of a non-selective NMDA receptor blocker. On the day of the experiment, cell culture media is carefully washed, and the cells are loaded with Calcium 5 Dye Kit (Molecular Devices) in dye loading buffer containing 137 mM NaCl, 4 mM KCl, 2 mM CaCl2, 0.5 mM MgCl2 (standard assay) or 1.5 mM MgCl2 (HTS assay), 10 mM HEPES and 5 mM D-glucose; pH 7.4. After 1 h incubation at the room temperature, the dye is washed away with the assay buffer (137 mM NaCl (standard assay) or 150 mM (HTS assay), 4 mM KCl (standard assay) or 3 mM (HTS assay), 2 mM CaCl2), 0.01 mM EDTA, 10 mM HEPES and 5 mM D-glucose; pH 7.4) In the FLIPR TETRA reader, various concentrations of the test compounds are added to the cells for 5 min while fluorescence is monitored to detect potential agonist activity. Next, co-agonists, glutamate and glycine are added for another 5 minutes. The concentration of glutamate corresponding to ˜EC40 (standard assay) or EC40 (HTS assay) is used to maximize the assay's signal window and ability to detect NMDA receptor antagonists and negative allosteric modulators. A saturating concentration (10 μM) of glycine is also present in the assay. A non-selective NMDA receptor antagonist, (+)MK-801 is used as a positive control for antagonist activity. The fluorescent signal in the presence of test compounds is quantified and normalized to the signal defined by the appropriate control wells.
# T1 sequence (Q13224 27-1484, other chains not shown): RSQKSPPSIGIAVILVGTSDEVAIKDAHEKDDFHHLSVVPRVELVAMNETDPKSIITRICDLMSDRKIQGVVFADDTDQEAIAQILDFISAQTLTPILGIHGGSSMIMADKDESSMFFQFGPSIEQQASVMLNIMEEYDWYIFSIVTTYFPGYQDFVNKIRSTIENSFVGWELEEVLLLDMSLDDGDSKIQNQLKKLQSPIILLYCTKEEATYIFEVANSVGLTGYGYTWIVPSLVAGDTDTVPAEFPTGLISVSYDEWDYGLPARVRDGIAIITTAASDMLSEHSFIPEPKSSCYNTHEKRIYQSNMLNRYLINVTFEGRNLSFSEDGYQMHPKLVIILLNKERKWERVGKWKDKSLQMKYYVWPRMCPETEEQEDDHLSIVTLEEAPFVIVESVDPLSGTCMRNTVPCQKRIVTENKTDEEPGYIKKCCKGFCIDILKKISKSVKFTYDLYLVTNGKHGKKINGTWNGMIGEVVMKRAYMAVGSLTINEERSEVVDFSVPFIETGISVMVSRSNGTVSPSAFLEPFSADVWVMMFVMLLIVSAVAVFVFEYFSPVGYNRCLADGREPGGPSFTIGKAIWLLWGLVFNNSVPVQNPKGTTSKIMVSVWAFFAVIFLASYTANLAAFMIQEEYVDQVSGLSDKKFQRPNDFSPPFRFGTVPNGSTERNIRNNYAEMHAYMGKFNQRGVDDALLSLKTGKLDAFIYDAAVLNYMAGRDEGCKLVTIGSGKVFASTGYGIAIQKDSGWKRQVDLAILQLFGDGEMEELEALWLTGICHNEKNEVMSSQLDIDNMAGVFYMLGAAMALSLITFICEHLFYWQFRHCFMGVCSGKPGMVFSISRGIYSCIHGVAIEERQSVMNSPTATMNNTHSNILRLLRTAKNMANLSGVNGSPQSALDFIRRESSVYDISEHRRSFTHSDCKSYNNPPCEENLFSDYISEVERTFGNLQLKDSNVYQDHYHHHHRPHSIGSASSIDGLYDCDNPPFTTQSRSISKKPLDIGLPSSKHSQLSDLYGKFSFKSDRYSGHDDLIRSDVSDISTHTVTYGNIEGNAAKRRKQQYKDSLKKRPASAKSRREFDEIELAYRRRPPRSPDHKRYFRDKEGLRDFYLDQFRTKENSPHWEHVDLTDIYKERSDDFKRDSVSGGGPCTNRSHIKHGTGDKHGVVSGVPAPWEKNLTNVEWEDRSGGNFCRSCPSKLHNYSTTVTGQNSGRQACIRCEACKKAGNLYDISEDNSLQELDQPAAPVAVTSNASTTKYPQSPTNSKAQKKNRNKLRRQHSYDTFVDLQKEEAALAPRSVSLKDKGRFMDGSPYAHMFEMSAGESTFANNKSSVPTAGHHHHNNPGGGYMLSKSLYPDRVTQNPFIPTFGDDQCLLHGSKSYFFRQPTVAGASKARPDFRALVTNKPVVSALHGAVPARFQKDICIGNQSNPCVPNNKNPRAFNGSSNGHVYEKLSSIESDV
row,IC50,Structure (SMILES)
1,160 nM,"Cc1nnc(Cn2ncc3ncc(-c4cccc(C(C)(F)F)c4)cc32)o1 [Example 82, 2-[[6-[3-(1,1-Difluoroethyl)phenyl]pyrazolo[4,3-b]pyridin-1-yl]methyl]-5-methyl-1,3,4-oxadiazole]"
2,938 nM,"COc1nccc(Cn2ncc3ncc(-c4ccc(F)c(OC(F)F)c4)cc32)n1 [Example 291, 6-[3-(Difluoromethoxy)-4-fluoro-phenyl]-1-[(2-methoxypyrimidin-4-yl)methyl]pyrazolo[4,3-b]pyridine]"
3,> 2990 nM,"Cc1ccc(Cn2ncc3ncc(-c4ccc(F)c(C(F)F)c4)cc32)s1 [Example 32, 6-[3-(Difluoromethyl)-4-fluoro-phenyl]-1-[(5-methyl-2-thienyl)methyl]pyrazolo[4,3-b]pyridine]"
4,165 nM,"FC(F)(F)c1cccc(-c2cnc3cnn(Cc4ccon4)c3c2)c1 [Example 44, 3-[[6-[3-(Trifluoromethyl)phenyl]pyrazolo[4,3-b]pyridin-1-yl]methyl]isoxazole]"
5,265 nM,"Cc1cnc(Cn2ncc3ncc(-c4ccc(F)c(C)c4)cc32)s1 [Example 68, 2-[[6-(4-Fluoro-3-methyl-phenyl)pyrazolo[4,3-b]pyridin-1-yl]methyl]-5-methyl-thiazole]"
6,37 nM,"Fc1ccc(-c2cnc3cnn(Cc4cnccn4)c3c2)cc1C(F)F [Example 272, 6-[3-(Difluoromethyl)-4-fluoro-phenyl]-1-(pyrazin-2-ylmethyl)pyrazolo[4,3-b]pyridine]"
7,16 nM,"Fc1ccc(Cn2ncc3ncc(-c4ccc(F)c(C(F)F)c4)cc32)cn1 [Example 201, 6-(3-(Difluoromethyl)-4-fluorophenyl)-1-((6-fluoropyridin-3-yl)methyl)-1H-pyrazolo[4,3-b]pyridine]"
8,582 nM,"N#Cc1cncc(Cn2ncc3ncc(-c4ccc(C(F)(F)F)s4)cc32)c1 [Example 144, 5-[[6-[5-(Trifluoromethyl)-2-thienyl]pyrazolo[4,3-b]pyridin-1-yl]methyl]pyridine-3-carbonitrile]"
9,550 nM,"CC(C)c1nnc(Cn2ncc3ncc(-c4ccc(F)c(C(F)F)c4)cc32)o1 [Example 100, 2-[[6-[3-(Difluoromethyl)-4-fluoro-phenyl]pyrazolo[4,3-b]pyridin-1-yl]methyl]-5-isopropyl-1,3,4-oxadiazole]"
10,47 nM,"Fc1ccc(-c2cnc3cnn(Cc4cncc(C(F)(F)F)c4)c3c2)cc1C(F)F [Example 211, 6-[3-(Difluoromethyl)-4-fluoro-phenyl]-1-[[5-(trifluoromethyl)-3-pyridyl]methyl]pyrazolo[4,3-b]pyridine]"
11,7370 nM,"COc1cccc(-c2cnc3cnn(Cc4ccccn4)c3c2)c1 [Example 154, 6-(3-Methoxyphenyl)-1-(2-pyridylmethyl)pyrazolo[4,3-b]pyridine]"
12,70 nM,"Fc1ccc(-c2cnc3cnn(Cc4nnc(C5CC5)o4)c3c2)cc1C(F)F [Example 99, 2-Cyclopropyl-5-[[6-[3-(difluoromethyl)-4-fluoro-phenyl]pyrazolo[4,3-b]pyridin-1-yl]methyl]-1,3,4-oxadiazole]"
13,75 nM,"Fc1cncc(Cn2ncc3ncc(-c4ccc(F)c(C(F)(F)F)c4)cc32)c1 [Example 233, 1-[(5-Fluoro-3-pyridyl)methyl]-6-[4-fluoro-3-(trifluoromethyl)phenyl]pyrazolo[4,3-b]pyridine]"
14,984 nM,"Cc1cc(Cn2ncc3ncc(-c4ccc(F)c(OC(F)F)c4)cc32)ncn1 [Example 281, 6-[3-(Difluoromethoxy)-4-fluoro-phenyl]-1-[(6-methylpyrimidin-4-yl)methyl]pyrazolo[4,3-b]pyridine]"
15,850 nM,"Fc1ccc(-c2cnc3cnn(Cc4cncc(OC(F)F)c4)c3c2)cc1F [Example 194, 1-[[5-(Difluoromethoxy)-3-pyridyl]methyl]-6-(3,4-difluorophenyl)pyrazolo[4,3-b]pyridine]"
16,957 nM,"Cc1noc(Cn2ncc3ncc(-c4ccc(F)cc4)cc32)n1 [Example 80, 5-[[6-(4-Fluorophenyl)pyrazolo[4,3-b]pyridin-1-yl]methyl]-3-methyl-1,2,4-oxadiazole]"
17,53 nM,"Cc1cnc(Cn2ncc3ncc(-c4ccc(F)c(C)c4)cc32)o1 [Example 49, 2-[[6-(4-Fluoro-3-methyl-phenyl)pyrazolo[4,3-b]pyridin-1-yl]methyl]-5-methyl-oxazole]"

row,IC50,Structure (SMILES)
1,502 nM,"Fc1ccc(-c2cnc3cnn(Cc4ccccn4)c3c2)cc1OC(F)F [Example 222, 6-[3-(Difluoromethoxy)-4-fluoro-phenyl]-1-(2-pyridylmethyl)pyrazolo[4,3-b]pyridine]"
2,108 nM,"Cc1c(F)ccc(-c2cnc3cnn(Cc4cccnn4)c3c2)c1F [Example 269, 6-(2,4-Difluoro-3-methyl-phenyl)-1-(pyridazin-3-ylmethyl)pyrazolo[4,3-b]pyridine]"
3,151 nM,"N#Cc1cncc(Cn2ncc3ncc(-c4ccc(Cl)c(OC(F)F)c4)cc32)c1 [Example 241, 5-[[6-[4-Chloro-3-(difluoromethoxy)phenyl]pyrazolo[4,3-b]pyridin-1-yl]methyl]pyridine-3-carbonitrile]"
4,626 nM,"Cc1ccc(Cn2ncc3ncc(-c4ccc(F)c(OC(F)F)c4)cc32)nn1 [Example 264, 6-[3-(Difluoromethoxy)-4-fluoro-phenyl]-1-[(6-methylpyridazin-3-yl)methyl]pyrazolo[4,3-b]pyridine]"
5,158 nM,"Cc1ccncc1Cn1ncc2ncc(-c3ccc(F)c(F)c3)cc21 [Example 190, 6-(3,4-Difluorophenyl)-1-[(4-methyl-3-pyridyl)methyl]pyrazolo[4,3-b]pyridine trifluoroacetate salt]"
6,389 nM,"N#Cc1cc(F)cc(Cn2ncc3ncc(-c4ccc(F)c(OC(F)F)c4)cc32)c1 [Example 31, 3-[[6-[3-(Difluoromethoxy)-4-fluoro-phenyl]pyrazolo[4,3-b]pyridin-1-yl]methyl]-5-fluoro-benzonitrile]"
7,158 nM,"CC(F)(F)c1cc(-c2cnc3cnn(Cc4cncc(C#N)c4)c3c2)ccc1F [Example 219, 5-[[6-[3-(1,1-Difluoroethyl)-4-fluoro-phenyl]pyrazolo[4,3-b]pyridin-1-yl]methyl]pyridine-3-carbonitrile]"
8,104 nM,"Cc1nnc(Cn2ncc3ncc(-c4ccc(F)c(OC(F)F)c4)cc32)o1 [Example 113, 2-[[6-[3-(Difluoromethoxy)-4-fluoro-phenyl]pyrazolo[4,3-b]pyridin-1-yl]methyl]-5-methyl-1,3,4-oxadiazole]"
9,827 nM,"Cn1cc(Cn2ncc3ncc(-c4ccc(F)c(OC(F)F)c4)cc32)nn1 [Example 72, 6-[3-(Difluoromethoxy)-4-fluoro-phenyl]-1-[(1-methyltriazol-4-yl)methyl]pyrazolo[4,3-b]pyridine]"
10,486 nM,"Fc1ccc(-c2cnc3cnn(Cc4cn[nH]c4)c3c2)cc1OC(F)F [Example 11, 6-[3-(Difluoromethoxy)-4-fluoro-phenyl]-1-(1H-pyrazol-4-ylmethyl)pyrazolo[4,3-b]pyridine]"
11,2170 nM,"Cc1ccc(Cn2ncc3ncc(-c4cccc(C(F)(F)F)c4)cc32)cn1 [Example 165, 1-[(6-Methyl-3-pyridyl)methyl]-6-[3-(trifluoromethyl)phenyl]pyrazolo[4,3-b]pyridine]"
12,26 nM,"Fc1ccc(-c2cnc3cnn(Cc4cncc(Cl)c4)c3c2)cc1C(F)F [Example 208, 1-[(5-Chloro-3-pyridyl)methyl]-6-[3-(difluoromethyl)-4-fluoro-phenyl]pyrazolo[4,3-b]pyridine]"
13,148 nM,"Cc1cc(Cn2ncc3ncc(-c4cccc(C(F)(F)F)c4)cc32)no1 [Example 47, 5-Methyl-3-[[6-[3-(trifluoromethyl)phenyl]pyrazolo[4,3-b]pyridin-1-yl]methyl]isoxazole]"
14,115 nM,"Cc1nnc(Cn2ncc3ncc(-c4ccc(Cl)c(C(F)F)c4)cc32)o1 [Example 106, 2-[[6-[4-Chloro-3-(difluoromethyl)phenyl]pyrazolo[4,3-b]pyridin-1-yl]methyl]-5-methyl-1,3,4-oxadiazole]"
15,62 nM,"N#Cc1cccc(Cn2ncc3ncc(-c4ccc(F)c(C(F)F)c4)cc32)c1 [Example 26, 3-[[6-[3-(Difluoromethyl)-4-fluoro-phenyl]pyrazolo[4,3-b]pyridin-1-yl]methyl]benzonitrile]"
16,2180 nM,"Fc1cccc(-c2cnc3cnn(Cc4ccccn4)c3c2)c1 [Example 152, 6-(3-Fluorophenyl)-1-(2-pyridylmethyl)pyrazolo[4,3-b]pyridine]"
17,1300 nM,"FC(F)(F)c1cccc(-c2cnc3cnn(Cc4cnccc4C(F)(F)F)c3c2)c1 [Example 176, 6-[3-(Trifluoromethyl)phenyl]-1-[[4-(trifluoromethyl)-3-pyridyl]methyl]pyrazolo[4,3-b]pyridine]"

# Source: patent US11530210B2, “Substituted heteroaromatic pyrazolo-pyridines and their use as GLUN2B receptor modulators” (JANSSEN PHARMACEUTICA NV, priority 2019, dated 2022)
